Measured values from ChEMBL document CHEMBL1152151, “Synthesis and preliminary pharmacological evaluation of N-2-(4-(4-(2-substitutedthiazol-4-yl) piperazin-1-yl)-2-oxoethyl)acetamides as novel atypical antipsychotic agents” (Bioorg Med Chem Lett, 2008).
Activity calls are given as the source filed them. The calls are words filed in the database; no cut-off is given here.

Legend:
Mus musculus [1] = assay: Inhibition of dopamine D2 receptor-mediated apomorphine-induced cage climbing behavior in Swiss albino mouse at 1 mg/kg, ip; assay type: functional, organism-based; design: dose 1 mg/kg
Mus musculus [2] = species: Mus musculus; assay: Toxic cataleptic effect in Swiss albino mouse assessed as maximum average cataleptic time; assay type: toxicity, organism-based; settings: in vivo
Mus musculus [3] = assay: Inhibition of dopamine D2 receptor-mediated apomorphine-induced cage climbing behavior in Swiss albino mouse at 10 mg/kg measured on 30 mins; assay type: functional; settings: 0.5 h
Mus musculus [4] = species: Mus musculus; assay: Toxic cataleptic effect against Swiss albino mouse; assay type: toxicity, organism-based; settings: in vivo
Mus musculus [5] = assay: Inhibition of dopamine D2 receptor-mediated apomorphine-induced cage climbing behavior in Swiss albino mouse at 10 mg/kg measured on 10 mins; assay type: functional
Mus musculus [6] = assay: Inhibition of 5HT2A receptor-mediated quipazine-induced head twitches in Swiss albino mouse at 10 mg/kg; assay type: functional
Mus musculus [7] = assay: Ratio of inhibition of quipazine-induced head twitches to inhibition of apomorphine-induced cage climbing behavior in Swiss albino mouse at 10 mg/kg; assay type: functional
Mus musculus [8] = assay: Inhibition of dopamine D2 receptor-mediated apomorphine-induced cage climbing behavior in Swiss albino mouse at 10 mg/kg measured on 20 mins; assay type: functional
Mus musculus [9] = assay: Inhibition of 5HT2A receptor-mediated quipazine-induced head twitches in Swiss albino mouse at 0.6 mg/kg, ip; assay type: functional, organism-based; design: dose 0.6 mg/kg
Mus musculus [10] = assay: Inhibition of dopamine D2 receptor-mediated apomorphine-induced cage climbing behavior in Swiss albino mouse at 10 mg/kg; assay type: functional

For `O=C(CCCN1CCC(O)(c2ccc(Cl)cc2)CC1)c1ccc(F)cc1`, the Activity (Mus musculus [1]) was “Active”.

In the case of `Cc1nc2n(c(=O)c1CCN1CCC(c3noc4cc(F)ccc34)CC1)CCCC2` [RISPERIDONE], the Activity (Mus musculus [2]) is reported as 2.54 s, the inhibition in vivo at 10 mg/kg (Mus musculus [3]) is reported as 90% and the Activity (Mus musculus [4]) is reported as “Non-toxic”. The inhibition in vivo at 10 mg/kg (Mus musculus [5]) was 91%, the inhibition in vivo at 10 mg/kg (Mus musculus [6]) was 100% and the Ratio (Mus musculus [7]) was 1.0989. The inhibition in vivo at 10 mg/kg (Mus musculus [8]) was 91%, the Activity (Mus musculus [9]) was “Active” and the inhibition in vivo at 10 mg/kg (Mus musculus [10]) was 91%.

`CC(=O)NCC(=O)N1CCN(CCc2ccc(-c3nc(C)sc3C)cc2)CC1` was tested, and the Activity (Mus musculus [2]) was 5.12 s, the inhibition in vivo at 10 mg/kg (Mus musculus [3]) was 80% and the Activity (Mus musculus [4]) was “Non-toxic”. It also gave an inhibition in vivo at 10 mg/kg (Mus musculus [5]) of 65%, an inhibition in vivo at 10 mg/kg (Mus musculus [6]) of 71% and a Ratio (Mus musculus [7]) of 0.8875. It also gave an inhibition in vivo at 10 mg/kg (Mus musculus [8]) of 65% and an inhibition in vivo at 10 mg/kg (Mus musculus [10]) of 80%.

With `CC(=O)NCC(=O)N1CCN(CCc2ccc(-c3csc(C)n3)cc2)CC1` the Activity (Mus musculus [2]) was 4.62 s, the inhibition in vivo at 10 mg/kg (Mus musculus [3]) was 70% and the Activity (Mus musculus [4]) was “Non-toxic”. The inhibition in vivo at 10 mg/kg (Mus musculus [5]) was 70%, the inhibition in vivo at 10 mg/kg (Mus musculus [6]) was 20% and the Ratio (Mus musculus [7]) was 0.2857. The inhibition in vivo at 10 mg/kg (Mus musculus [8]) was 65% and the inhibition in vivo at 10 mg/kg (Mus musculus [10]) was 70%.

With `CNc1nc(-c2ccc(CCN3CCN(C(=O)CNC(C)=O)CC3)cc2)cs1` the Activity (Mus musculus [2]) was 16.54 s, the inhibition in vivo at 10 mg/kg (Mus musculus [3]) was 60% and the Activity (Mus musculus [4]) was “Non-toxic”. For the same molecule, the inhibition in vivo at 10 mg/kg (Mus musculus [5]) was 60%, the inhibition in vivo at 10 mg/kg (Mus musculus [6]) was 54% and the Ratio (Mus musculus [7]) was 0.9. It also gave an inhibition in vivo at 10 mg/kg (Mus musculus [8]) of 50% and an inhibition in vivo at 10 mg/kg (Mus musculus [10]) of 60%.
